# Experiments:
# Experiment in all cases: p24 secretion of HIV-1-infected PBMCs
# Format in all cases: cell-based
# HIV-1 isolate: 97USNG30 = settings: NB-DNJ 1000 uM; treatment removed 2 weeks
# Procedure: (§1) Clearance of HIV-1 primary isolates from infected human cells by NB-DNJ was assessed using phytohemagglutinin (PHA)-activated peripheral blood mononuclear cells (PBMCs) as indicator cells and the determination of p24 antigen production as the end point.
# (§2) PBMCs from four normal (uninfected) donors were isolated, pooled, and stimulated with PHA (5 μg/ml) for 48 h followed by PHA plus interleukin-2 (40 U/ml) for 72 h in RPMI 1640 medium containing 10% heat-inactivated fetal bovine serum (FBS), 100 U of penicillin per ml, 100 μg of streptomycin per ml, and 2 mM L-glutamine. All experiments were performed in 96-well microtiter plates. To infect cells, 100 μl of PHA-activated PBMCs (5×10^5/ml) was added to each well, after which an equal volume containing 100 50% tissue culture infective doses (TCID50) of primary isolate stock was added. After an overnight incubation, the cells were washed three times with tissue culture medium, and finally re-suspended in medium containing the appropriate liposome treatment or free NB-DNJ. On day 7, approximately 10-30% of the culture volume containing secreted HIV-1 virions was used to infect naïve PBMCs for a second round of infection and treatment (volume transferred was calculated to be the volume necessary for the untreated control of that isolate to infect naïve cells at a TCID50=100). Rounds of treatment and infection of naïve cells were continued over four weeks, and at every time point cellular supernatant containing secreted virions was isolated and used in capture ELISAs to determine p24 concentration (measure of secretion). Additionally, supernatant isolated at each time point throughout treatment was used to infect naïve PBMCs (TCID50=100) for two weeks with no further treatment, which allowed for the observation of a rebound in viral activity.
# (§3) PBMCs infected with 8 primary isolates (listed in Table 3) were incubated in the presence of free NB-DNJ (concentrations ranging 0-1 mM) or liposome-encapsulated NB-DNJ (0-3.75 μM, final lipid concentration of 50 μM).
# HIV-1 isolate: JR-FL = settings: for % p24 secretion Week 1-rb / % p24 secretion Week 2-rb / % p24 secretion Week 3-rb / % p24 secretion Week 4-rb: treatment removed 2 weeks
# Procedure: as §1, §2, §3
# HIV-1 isolate: UG92046 = settings: for % p24 secretion Week 1-rb / % p24 secretion Week 2-rb / % p24 secretion Week 3-rb / % p24 secretion Week 4-rb: treatment removed 2 weeks
# Procedure: as §1, §2, §3
smiles,measurement,setting,value
"CCCCN1C[C@H](O)[C@@H](O)[C@H](O)[C@H]1CO [NB-DNJ, N-butyl-1,5-dideoxy-1,5-imino-D-glucitol]",% p24 secretion Week 3-rb,HIV-1 isolate: 97USNG30,0%
same,% p24 secretion Week 4-rb,HIV-1 isolate: 97USNG30,0%
same,reduction in viral secretion,"HIV-1 isolate: JR-FL; 1 mM free in medium, first week",50%
same,% p24 secretion Week 1,HIV-1 isolate: JR-FL; NB-DNJ 250 uM,107%
same,% p24 secretion Week 2,HIV-1 isolate: JR-FL; NB-DNJ 250 uM,105%
same,% p24 secretion Week 3,HIV-1 isolate: JR-FL; NB-DNJ 250 uM,89%
same,% p24 secretion Week 4,HIV-1 isolate: JR-FL; NB-DNJ 250 uM,93%
same,% p24 secretion Week 1-rb,HIV-1 isolate: JR-FL; NB-DNJ 250 uM,104%
same,% p24 secretion Week 2-rb,HIV-1 isolate: JR-FL; NB-DNJ 250 uM,101%
same,% p24 secretion Week 3-rb,HIV-1 isolate: JR-FL; NB-DNJ 250 uM,97%
same,% p24 secretion Week 4-rb,HIV-1 isolate: JR-FL; NB-DNJ 250 uM,91%
same,% p24 secretion Week 1,HIV-1 isolate: JR-FL; NB-DNJ 500 uM,64%
same,% p24 secretion Week 2,HIV-1 isolate: JR-FL; NB-DNJ 500 uM,24%
same,% p24 secretion Week 3,HIV-1 isolate: JR-FL; NB-DNJ 500 uM,5%
same,% p24 secretion Week 4,HIV-1 isolate: JR-FL; NB-DNJ 500 uM,0%
same,% p24 secretion Week 1-rb,HIV-1 isolate: JR-FL; NB-DNJ 500 uM,75%
same,% p24 secretion Week 2-rb,HIV-1 isolate: JR-FL; NB-DNJ 500 uM,9%
same,% p24 secretion Week 3-rb,HIV-1 isolate: JR-FL; NB-DNJ 500 uM,4%
same,% p24 secretion Week 4-rb,HIV-1 isolate: JR-FL; NB-DNJ 500 uM,2%
same,% p24 secretion Week 1,HIV-1 isolate: JR-FL; NB-DNJ 1000 uM,44%
same,% p24 secretion Week 2,HIV-1 isolate: JR-FL; NB-DNJ 1000 uM,9%
same,% p24 secretion Week 3,HIV-1 isolate: JR-FL; NB-DNJ 1000 uM,1%
same,% p24 secretion Week 4,HIV-1 isolate: JR-FL; NB-DNJ 1000 uM,0%
same,% p24 secretion Week 1-rb,HIV-1 isolate: JR-FL; NB-DNJ 1000 uM,56%
same,% p24 secretion Week 2-rb,HIV-1 isolate: JR-FL; NB-DNJ 1000 uM,5%
same,% p24 secretion Week 3-rb,HIV-1 isolate: JR-FL; NB-DNJ 1000 uM,1%
same,% p24 secretion Week 4-rb,HIV-1 isolate: JR-FL; NB-DNJ 1000 uM,0%
same,% p24 secretion Week 1,HIV-1 isolate: UG92046; NB-DNJ 250 uM,91%
same,% p24 secretion Week 2,HIV-1 isolate: UG92046; NB-DNJ 250 uM,115%
same,% p24 secretion Week 3,HIV-1 isolate: UG92046; NB-DNJ 250 uM,91%
same,% p24 secretion Week 4,HIV-1 isolate: UG92046; NB-DNJ 250 uM,79%
same,% p24 secretion Week 1-rb,HIV-1 isolate: UG92046; NB-DNJ 250 uM,99%
same,% p24 secretion Week 2-rb,HIV-1 isolate: UG92046; NB-DNJ 250 uM,92%
same,% p24 secretion Week 3-rb,HIV-1 isolate: UG92046; NB-DNJ 250 uM,94%
same,% p24 secretion Week 4-rb,HIV-1 isolate: UG92046; NB-DNJ 250 uM,89%
same,% p24 secretion Week 1,HIV-1 isolate: UG92046; NB-DNJ 500 uM,79%
same,% p24 secretion Week 2,HIV-1 isolate: UG92046; NB-DNJ 500 uM,39%
same,% p24 secretion Week 3,HIV-1 isolate: UG92046; NB-DNJ 500 uM,10%
same,% p24 secretion Week 4,HIV-1 isolate: UG92046; NB-DNJ 500 uM,0%
same,% p24 secretion Week 1-rb,HIV-1 isolate: UG92046; NB-DNJ 500 uM,75%
same,% p24 secretion Week 2-rb,HIV-1 isolate: UG92046; NB-DNJ 500 uM,43%
same,% p24 secretion Week 3-rb,HIV-1 isolate: UG92046; NB-DNJ 500 uM,15%
same,% p24 secretion Week 4-rb,HIV-1 isolate: UG92046; NB-DNJ 500 uM,0%
same,% p24 secretion Week 1,HIV-1 isolate: UG92046; NB-DNJ 1000 uM,64%
same,% p24 secretion Week 2,HIV-1 isolate: UG92046; NB-DNJ 1000 uM,15%
same,% p24 secretion Week 3,HIV-1 isolate: UG92046; NB-DNJ 1000 uM,3%
same,% p24 secretion Week 4,HIV-1 isolate: UG92046; NB-DNJ 1000 uM,0%
same,% p24 secretion Week 1-rb,HIV-1 isolate: UG92046; NB-DNJ 1000 uM,64%
same,% p24 secretion Week 2-rb,HIV-1 isolate: UG92046; NB-DNJ 1000 uM,21%
same,% p24 secretion Week 3-rb,HIV-1 isolate: UG92046; NB-DNJ 1000 uM,1%
same,% p24 secretion Week 4-rb,HIV-1 isolate: UG92046; NB-DNJ 1000 uM,0%

# From patent US20110182982A1, “LIPOSOME TREATMENT OF VIRAL INFECTIONS” (University of Oxford, priority 2006, published 2011)
